In patent publication US20140058103A1, “Inhibitors of PI3K-Delta and Methods of Their Use and Manufacture” (Exelixis, Inc., priority 2010, published 2014) one finds IC50 data, which are given here for 32 compounds.

PI3K delta, sequence (O00329 whole entry): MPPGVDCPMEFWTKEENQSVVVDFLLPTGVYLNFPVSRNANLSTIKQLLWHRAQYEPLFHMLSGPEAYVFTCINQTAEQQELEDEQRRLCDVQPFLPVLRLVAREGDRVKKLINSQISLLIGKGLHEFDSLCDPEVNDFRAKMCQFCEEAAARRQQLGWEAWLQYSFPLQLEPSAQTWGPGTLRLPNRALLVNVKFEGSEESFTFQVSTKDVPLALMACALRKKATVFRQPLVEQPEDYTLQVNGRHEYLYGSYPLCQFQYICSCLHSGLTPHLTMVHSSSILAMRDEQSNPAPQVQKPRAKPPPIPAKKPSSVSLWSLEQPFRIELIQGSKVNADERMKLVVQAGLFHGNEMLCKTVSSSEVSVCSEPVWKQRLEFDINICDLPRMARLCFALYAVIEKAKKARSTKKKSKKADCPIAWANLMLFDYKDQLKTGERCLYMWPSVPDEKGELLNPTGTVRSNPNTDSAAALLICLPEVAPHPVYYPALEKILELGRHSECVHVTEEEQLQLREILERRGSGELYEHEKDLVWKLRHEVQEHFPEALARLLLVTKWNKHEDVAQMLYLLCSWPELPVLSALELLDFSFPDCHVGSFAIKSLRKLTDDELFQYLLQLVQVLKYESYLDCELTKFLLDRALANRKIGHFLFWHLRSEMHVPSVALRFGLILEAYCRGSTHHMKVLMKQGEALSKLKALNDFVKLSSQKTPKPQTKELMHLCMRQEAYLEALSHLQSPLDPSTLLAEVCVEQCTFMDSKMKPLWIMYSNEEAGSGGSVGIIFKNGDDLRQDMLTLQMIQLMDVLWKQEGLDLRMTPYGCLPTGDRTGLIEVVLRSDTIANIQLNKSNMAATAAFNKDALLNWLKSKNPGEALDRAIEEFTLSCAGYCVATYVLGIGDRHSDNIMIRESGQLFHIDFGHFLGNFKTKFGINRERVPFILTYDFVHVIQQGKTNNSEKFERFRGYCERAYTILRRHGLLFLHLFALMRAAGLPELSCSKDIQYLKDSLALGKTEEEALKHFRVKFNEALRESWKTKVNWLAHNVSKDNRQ
PI3K delta, sequence (P27986 whole entry partner): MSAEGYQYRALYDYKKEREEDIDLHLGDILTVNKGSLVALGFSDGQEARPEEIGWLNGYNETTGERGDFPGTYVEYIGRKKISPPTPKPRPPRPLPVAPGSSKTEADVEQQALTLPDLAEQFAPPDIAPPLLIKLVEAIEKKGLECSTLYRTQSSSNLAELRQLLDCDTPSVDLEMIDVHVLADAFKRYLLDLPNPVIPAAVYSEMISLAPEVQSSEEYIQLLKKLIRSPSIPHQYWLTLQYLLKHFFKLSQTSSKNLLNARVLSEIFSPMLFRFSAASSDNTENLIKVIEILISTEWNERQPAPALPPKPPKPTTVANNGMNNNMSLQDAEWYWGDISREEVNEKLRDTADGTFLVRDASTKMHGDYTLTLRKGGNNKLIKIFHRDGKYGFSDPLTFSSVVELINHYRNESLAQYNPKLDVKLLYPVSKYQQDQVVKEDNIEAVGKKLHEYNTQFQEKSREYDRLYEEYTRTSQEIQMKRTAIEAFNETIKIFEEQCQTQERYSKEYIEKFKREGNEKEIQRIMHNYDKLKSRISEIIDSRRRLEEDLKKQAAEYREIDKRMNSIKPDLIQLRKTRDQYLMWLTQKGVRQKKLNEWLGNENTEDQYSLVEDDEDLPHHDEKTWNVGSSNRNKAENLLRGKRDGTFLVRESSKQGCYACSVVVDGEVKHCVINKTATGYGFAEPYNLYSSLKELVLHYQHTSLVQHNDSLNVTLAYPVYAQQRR

This experiment concerns the target PI3K delta (Homo sapiens, UniProt O00329). Kind of experiment: Luciferase-coupled chemiluminescence kinase assay (ATP consumption, KinaseGlo). The class given is biochemical. In short, it runs like this:
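ATP consumption measured by KinaseGlo luciferase chemiluminescence after a 2 h reaction at ambient temperature, with ATP at or below the kinase KM. Ten inhibitor concentrations per curve; IC50 from four-parameter nonlinear regression.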
`Cn1c(C(=O)NCC(C)(C)O)nc2c(N3CCC(n4c(=O)[nH]c5ccccc54)CC3)ncnc21` [Compound 273, N-(2-hydroxy-2-methylpropyl)-9-methyl-6-[4-(2-oxo-2,3-dihydro-1H-benzimidazol-1-yl)piperidin-1-yl]-9H-purine-8-carboxamide] gave a half-inhibitory concentration (IC50) below 50 nM. `Cn1c(C(=O)NCC2CC2)nc2c(N3CCC(n4c(=O)[nH]c5ccccc54)C3)ncnc21` (centres unmarked) [Compound 172, N-(cyclopropylmethyl)-9-methyl-6-[3-(2-oxo-2,3-dihydro-1H-benzimidazol-1-yl)pyrrolidin-1-yl]-9H-purine-8-carboxamide] gave an IC50 of 500 to 1500 nM. Under `CC(CNC(=O)c1nc2c(N3CCC4(CC3)C(=O)Nc3ccccc34)ncnc2n1C)c1ccccc1` (centres unmarked) [Compound 31, 9-methyl-6-(2-oxo-1,2-dihydro-1′H-spiro[indole-3,4′-piperidin]-1′-yl)-N-(2-phenylpropyl)-9H-purine-8-carboxamide] stands 500 to 1500 nM; under `Cn1c(-c2ccnnc2)nc2c(N3CCC4(CC3)C(=O)Nc3ccccc34)ncnc21` [Compound 313, 1′-(9-methyl-8-pyridazin-4-yl-9H-purin-6-yl)spiro[indole-3,4′-piperidin]-2(1H)-one], 50 to 250 nM. `Cn1c(-c2cn[nH]c2-c2ccccc2)nc2c(N3CCC(n4c(=O)[nH]c5ccccc54)CC3)ncnc21` [Compound 286, 1-{1-[9-methyl-8-(5-phenyl-1H-pyrazol-4-yl)-9H-purin-6-yl]piperidin-4-yl}-1,3-dihydro-2H-benzimidazol-2-one] gave an IC50 below 50 nM. Turning to `Cn1c(-n2cnc(Br)c2)nc2c(N3CCC(n4c(=O)[nH]c5ccccc54)CC3)ncnc21` [Compound 153, 1-{1-[8-(4-bromo-1H-imidazol-1-yl)-9-methyl-9H-purin-6-yl]piperidin-4-yl}-1,3-dihydro-2H-benzimidazol-2-one], the IC50 lay within 50 to 250 nM.

`CCCCNC(=O)c1nc2c(N3CCC4(CC3)C(=O)Nc3ccccc34)ncnc2n1C` [Compound 16, N-butyl-9-methyl-6-(2-oxo-1,2-dihydro-1′H-spiro[indole-3,4′-piperidin]-1′-yl)-9H-purine-8-carboxamide] showed an IC50 of 50 to 250 nM. `CCc1nnc(-c2nc3c(N4CCC(n5c(=O)[nH]c6ccccc65)CC4)ncnc3n2C)o1` [Compound 114, 1-{1-[8-(5-ethyl-1,3,4-oxadiazol-2-yl)-9-methyl-9H-purin-6-yl]piperidin-4-yl}-1,3-dihydro-2H-benzimidazol-2-one] registered a half-maximal inhibitory concentration (IC50) below 50 nM. The compound `Cn1c(C(=O)NC2CCc3ccccc32)nc2c(N3CCC(n4c(=O)[nH]c5ccccc54)CC3)ncnc21` (centres unmarked) [Compound 47, N-(2,3-dihydro-1H-inden-1-yl)-9-methyl-6-[4-(2-oxo-2,3-dihydro-1H-benzimidazol-1-yl)piperidin-1-yl]-9H-purine-8-carboxamide] showed an IC50 of 50 to 250 nM.

`CCc1nnc(-c2nc3c(N4CCC5(CC4)C(=O)Nc4ccccc45)ncnc3n2C)o1` [Compound 182, 1′-[8-(5-ethyl-1,3,4-oxadiazol-2-yl)-9-methyl-9H-purin-6-yl]spiro[indole-3,4′-piperidin]-2(1H)-one] displayed a 50% inhibitory concentration (IC50) below 50 nM. Under `Cn1cc(-c2nc3c(N4CCN(S(=O)(=O)c5ccc(F)cc5F)CC4)ncnc3n2C)cn1` [Compound 383, 6-{4-[(2,4-difluorophenyl)sulfonyl]piperazin-1-yl)-9-methyl-8-(1-methyl-1H-pyrazol-4-yl)-9H-purine] stands 500 to 1500 nM; under `Cn1c(C(=O)NCC2CC2)nc2c(N3CCC4(CC3)Nc3ccccc3NC4=O)ncnc21` [Compound 249, N-(cyclopropylmethyl)-9-methyl-6-(3′-oxo-3′,4′-dihydro-1H,1′H-spiro[piperidine-4,2′-quinoxalin]-1-yl)-9H-purine-8-carboxamide], 500 to 1500 nM. `COc1ccc(Cl)cc1S(=O)(=O)N1CCN(c2ncnc3c2nc(-c2cnn(C)c2)n3C)CC1` [Compound 388, 6-(4-{[5-chloro-2-(methyloxy)phenyl]sulfonyl}-piperazin-1-yl)-9-methyl-8-(1-methyl-1H-pyrazol-4-yl)-9H-purine] came in with a 50% inhibitory concentration (IC50) of 50 to 250 nM. In turn, `CCn1c(C(=O)NC2CCC2)nc2c(N3CCC(n4c(=O)[nH]c5ccccc54)CC3)ncnc21` [Compound 194, N-cyclobutyl-9-ethyl-6-[4-(2-oxo-2,3-dihydro-1H-benzimidazol-1-yl)piperidin-1-yl]-9H-purine-8-carboxamide] displayed an IC50 below 50 nM. The compound `CCn1c(C(=O)N[C@H]2CC[C@H](O)CC2)nc2c(N3CCC4(CC3)C(=O)Nc3ccccc34)ncnc21` [Compound 159, 9-ethyl-N-(trans-4-hydroxycyclohexyl)-6-(2-oxo-1,2-dihydro-1′H-spiro[indole-3,4′-piperidin]-1′-yl)-9H-purine-8-carboxamide] came in with a half-maximal inhibitory concentration (IC50) below 50 nM. In the case of `CCn1c(C(=O)NC(C)C)nc2c(N3CCC(n4c(=O)[nH]c5ccccc54)CC3)ncnc21` [Compound 196, 9-ethyl-N-(1-methylethyl)-6-[4-(2-oxo-2,3-dihydro-1H-benzimidazol-1-yl)piperidin-1-yl]-9H-purine-8-carboxamide], the concentration for half-maximal inhibition (IC50) is below 50 nM. The compound `Cn1c(-n2cnc3ccccc32)nc2c(N3CCC(n4c(=O)[nH]c5ccccc54)CC3)ncnc21` [Compound 259, 1-{1-[8-(1H-benzimidazol-1-yl)-9-methyl-9H-purin-6-yl]piperidin-4-yl}-1,3-dihydro-2H-benzimidazol-2-one] displayed an IC50 below 50 nM.

With `CCCCNC(=O)c1nc2c(N3CCC(n4c(=O)[nH]c5ccccc54)CC3)ncnc2n1C` [Compound 45, N-butyl-9-methyl-6-[4-(2-oxo-2,3-dihydro-1H-benzimidazol-1-yl)piperidin-1-yl]-9H-purine-8-carboxamide], the half-inhibitory concentration (IC50) is below 50 nM. Under `CCNC(=O)c1nc2c(N3CCC4(CC3)C(=O)Nc3ccccc34)ncnc2n1C` [Compound 32, N-ethyl-9-methyl-6-(2-oxo-1,2-dihydro-1H-spiro[indole-3,4′-piperidin]-1′-yl)-9H-purine-8-carboxamide] stands 50 to 250 nM. Compound `CCn1c(C(=O)NCC2CC2)nc2c(N3CCC(n4c(=O)[nH]c5ncccc54)CC3)ncnc21` [Compound 270, N-(cyclopropylmethyl)-9-ethyl-6-[4-(2-oxo-2,3-dihydro-1H-imidazo[4,5-b]pyridin-1-yl)piperidin-1-yl]-9H-purine-8-carboxamide] showed an IC50 below 50 nM. Under `Cn1c(-c2ccc(N)nc2)nc2c(N3CCC(n4c(=O)[nH]c5ccccc54)CC3)ncnc21` [Compound 303, 1-{1-[8-(6-aminopyridin-3-yl)-9-methyl-9H-purin-6-yl]piperidin-4-yl}-1,3-dihydro-2H-benzimidazol-2-one] stands below 50 nM. Take `Cc1ccc(-c2nc3c(N4CCC(n5c(=O)[nH]c6ccccc65)CC4)ncnc3n2C)o1` [Compound 115, 1-{1-[9-methyl-8-(5-methylfuran-2-yl)-9H-purin-6-yl]piperidin-4-yl}-1,3-dihydro-2H-benzimidazol-2-one]: the half-inhibitory concentration (IC50) is 250 to 500 nM. As to `Cn1cc(-c2nc3c(N4CCN(S(=O)(=O)c5ccc(Cl)c(Cl)c5)CC4)ncnc3n2C)cn1` [Compound 380, 6-{4-[(3,4-dichlorophenyl)sulfonyl]piperazin-1-yl}-9-methyl-8-(1-methyl-1H-pyrazol-4-yl)-9H-purine], the 50% inhibitory concentration (IC50) was 50 to 250 nM. Compound `CC(=O)c1ccc(S(=O)(=O)N2CCN(c3ncnc4c3nc(-c3cnn(C)c3)n4C)CC2)cc1` [Compound 384, 1-[4-({4-[9-methyl-8-(1-methyl-1H-pyrazol-4-yl)-9H-purin-6-yl]piperazin-1-yl)sulfonyl)phenyl]ethanone] came in with an IC50 of 500 to 1500 nM.

In turn, `Cn1c(-c2nnc(C3CC3)o2)nc2c(N3CCC4(CC3)C(=O)Nc3ccccc34)ncnc21` [Compound 184, 1′-[8-(5-cyclopropyl-1,3,4-oxadiazol-2-yl)-9-methyl-9H-purin-6-yl]spiro[indole-3,4′-piperidin]-2(1H)-one] yielded a half-maximal inhibitory concentration (IC50) below 50 nM. `Cn1c(C(=O)NCc2cccs2)nc2c(N3CCC(n4c(=O)[nH]c5ccccc54)CC3)ncnc21` [Compound 49, 9-methyl-6-[4-(2-oxo-2,3-dihydro-1H-benzimidazol-1-yl)piperidin-1-yl]-N-(2-thienylmethyl)-9H-purine-8-carboxamide] came in with an IC50 of 50 to 250 nM. As for `Cn1c(-c2ccc(Cl)nc2)nc2c(N3CCC(n4c(=O)[nH]c5ccccc54)CC3)ncnc21` [Compound 283, 1-{1-[8-(6-chloropyridin-3-yl)-9-methyl-9H-purin-6-yl]piperidin-4-yl}-1,3-dihydro-2H-benzimidazol-2-one], the half-inhibitory concentration (IC50) was below 50 nM. Under `Cn1cc(-c2nc3c(N4CCC(n5c(=O)[nH]c6cnccc65)CC4)ncnc3n2C)cn1` [Compound 341, 1-{1-[9-methyl-8-(1-methyl-1H-pyrazol-4-yl)-9H-purin-6-yl]piperidin-4-yl}-1,3-dihydro-2H-imidazo[4,5-c]pyridin-2-one] stands 250 to 500 nM. `Cn1cc(-c2nc3c(N4CCN(S(=O)(=O)c5ccccc5C#N)CC4)ncnc3n2C)cn1` [Compound 381, 2-({4-[9-methyl-8-(1-methyl-1H-pyrazol-4-yl)-9H-purin-6-yl]piperazin-1-yl}sulfonyl)benzonitrile] returned an IC50 of 250 to 500 nM. Under `Cn1c(C(=O)NCCCO)nc2c(N3CCC4(CC3)C(=O)Nc3ccccc34)ncnc21` [Compound 19, N-(3-hydroxypropyl)-9-methyl-6-(2-oxo-1,2-dihydro-1′H-spiro[indole-3,4′-piperidin]-1′-yl)-9H-purine-8-carboxamide] stands 50 to 250 nM. Consider `Cn1c(C(=O)NCC2CC2)nc2c(N3CCC4(CC3)CC(=O)Nc3ccccc3O4)ncnc21` [Compound 170, N-(cyclopropylmethyl)-9-methyl-6-(4-oxo-4,5-dihydro-1′H,3H-spiro[1,5-benzoxazepine-2,4′-piperidin]-1′-yl)-9H-purine-8-carboxamide], for which the IC50 lay in the range of 250 to 500 nM. In turn, `CCn1c(C(=O)N2CCC(F)(F)C2)nc2c(N3CCC(n4c(=O)[nH]c5ccccc54)CC3)ncnc21` [Compound 191, 1-(1-{8-[(3,3-difluoropyrrolidin-1-yl)carbonyl]-9-ethyl-9H-purin-6-yl}piperidin-4-yl)-1,3-dihydro-2H-benzimidazol-2-one] gave a concentration for half-maximal inhibition (IC50) below 50 nM.
